Assay [1] addresses T1, system Xc^− (Homo sapiens, UniProt Q9UPY5).
T1 sequence (Q9UPY5 1-501): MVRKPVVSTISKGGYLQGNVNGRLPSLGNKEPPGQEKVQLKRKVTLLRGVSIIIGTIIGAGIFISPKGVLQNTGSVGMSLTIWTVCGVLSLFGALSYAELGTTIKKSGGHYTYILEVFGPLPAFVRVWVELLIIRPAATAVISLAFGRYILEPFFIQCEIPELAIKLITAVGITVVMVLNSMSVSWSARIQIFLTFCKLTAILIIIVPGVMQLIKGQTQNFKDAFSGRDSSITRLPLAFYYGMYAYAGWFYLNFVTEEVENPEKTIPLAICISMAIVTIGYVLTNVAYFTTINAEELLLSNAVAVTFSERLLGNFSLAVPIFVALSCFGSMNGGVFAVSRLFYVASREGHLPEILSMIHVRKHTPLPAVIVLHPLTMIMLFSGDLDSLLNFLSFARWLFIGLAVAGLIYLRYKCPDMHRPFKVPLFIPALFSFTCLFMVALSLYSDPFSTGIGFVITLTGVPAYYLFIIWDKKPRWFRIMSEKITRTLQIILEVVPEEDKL
T1 sequence (P08195 1-529 partner): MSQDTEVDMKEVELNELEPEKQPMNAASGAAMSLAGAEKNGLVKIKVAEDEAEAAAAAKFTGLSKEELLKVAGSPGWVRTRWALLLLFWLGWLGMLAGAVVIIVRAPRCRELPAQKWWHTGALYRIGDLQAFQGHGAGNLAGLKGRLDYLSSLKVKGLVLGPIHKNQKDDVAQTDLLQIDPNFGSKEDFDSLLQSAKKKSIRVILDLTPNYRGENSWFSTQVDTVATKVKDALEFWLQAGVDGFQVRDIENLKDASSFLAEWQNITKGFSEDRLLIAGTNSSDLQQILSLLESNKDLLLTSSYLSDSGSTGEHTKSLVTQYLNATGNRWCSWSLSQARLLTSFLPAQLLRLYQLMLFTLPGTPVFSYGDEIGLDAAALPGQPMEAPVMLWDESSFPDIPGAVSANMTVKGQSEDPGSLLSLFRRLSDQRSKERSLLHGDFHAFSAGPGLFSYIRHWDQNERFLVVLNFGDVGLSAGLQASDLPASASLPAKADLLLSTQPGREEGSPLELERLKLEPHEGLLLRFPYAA
The assay can be described thus: Cystine-induced glutamate release assay. More on the design: endogenous in cells; host or cells: H4 cells. Format: cell-based. To be noted: H4 cells, sodium-free HEPES buffer, 50 μM L-Cystine, 2 hours, Amplex Red glutamate readout; read-out: pIC50 Cystine-induced glutamate release assay (converted). In a few lines:
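IC50 (reported as pIC50) normalized to DMSO 1% and Erastin 50 μM controls, from Amplex Red fluorescence of glutamate exported into supernatant. H4 cells were washed into sodium-free buffer to exclude EAAT transport, then given compound with 50 μM L-cystine for 2 h in the incubator.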

Assay [2] concerns the target T1, system Xc^−. The assay can be described thus: [^14C]L-Cystine uptake assay. It counts as cell-based. Details: endogenous in cells; host or cells: H4 cells. As to conditions: H4 cells, sodium-free HEPES buffer, 0.5 μM L-[14C]Cystine and 4.5 μM L-Cystine, 1 hour at 37° C.; read-out: pIC50 [^14C] L-Cystine uptake assay (converted). An outline of the steps: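 Compound effect is given as pIC50, taken between controls of 1% DMSO and 50 μM Erastin. Human H4 cells were pretreated 15 min with compound in sodium-free buffer, then took up 0.5 μM [14C]cystine with 4.5 μM cold cystine for 1 hour at 37° C, read by scintillation proximity counting.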

Consider `COc1nc2c(cc1C)N(CC(=O)Nc1ccc(C(F)(F)F)cc1)C(=O)C(C)c1ncccc1-2` (stereo not drawn) [#109, 2-(4-methoxy-5,10-dimethyl-9-oxo-3,8,12-triazatricyclo[9.4.0.0^2,7]pentadeca-1(11),2,4,6,12,14-hexaen-8-yl)-N-[4-(trifluoromethyl)phenyl]acetamide], for which the values for the IC50 in assay [1] and in assay [2] were 39.8 to 100 nM and 15.8 to 39.8 nM, respectively.

For `O=C(CN1C(=O)Cc2cc(F)ccc2-c2c1cc(N1CC(F)(F)C1)nc2F)Nc1ccc(C(F)F)cc1` [#296, 2-[3-(3,3-difluoroazetidin-1-yl)-1,9-difluoro-6-oxo-7H-pyrido[4,3-d][3]benzazepin-5-yl]-N-[4-(difluoromethyl)phenyl]acetamide], the values for the IC50 in assay [1] and in assay [2] were 39.8 to 100 nM and 15.8 to 39.8 nM, respectively.

As to `Cc1cc2c(c(F)n1)-c1ccnn1C(C)C(=O)N2CC(=O)Nc1ccc(C(F)F)cc1` (single isomer, unassigned) [#221, Enantiomer (7S) or (7R) of N-[4-(difluoromethyl)phenyl]-2-[14-fluoro-7,12-dimethyl-8-oxo-5,6,9,13-tetrazatricyclo[8.4.0.0^2,6]tetradeca-1(14),2,4,10,12-pentaen-9-yl]acetamide], the IC50 in assay [1] is 39.8 to 100 nM; in assay [2], 100 to 501 nM.

In the case of `Cc1cc2c(c(=O)n1C)-c1cncnc1C(C)C(=O)N2CC(=O)Nc1ccc(C(F)F)cc1` (single isomer, unassigned) [#367, N-[4-(difluoromethyl)phenyl]-2-[8,13,14-trimethyl-9,15-dioxo-4,6,10,14-tetrazatricyclo[9.4.0.0^2,7]pentadeca-1(11),2(7),3,5,12-pentaen-10-yl]acetamide], the IC50 in assay [1] and in assay [2] was 15.8 to 39.8 nM throughout.

As to `C[C@@H]1C(=O)N(CC(=O)Nc2ccc(C(F)F)cc2)c2cc(N3CC[C@@H](F)C3)nc(F)c2-c2cccnc21` (single isomer, unassigned) [#276, N-[4-(difluoromethyl)phenyl]-2-[3-fluoro-5-[3-fluoropyrrolidin-1-yl]-10-methyl-9-oxo-4,8,12-triazatricyclo[9.4.0.0^2,7]pentadeca-1(15),2,4,6,11,13-hexaen-8-yl]acetamide], the IC50 in assay [1] and in assay [2] was under 15.8 nM in each case.

For `Cc1cc2c(c(F)n1)-c1cccnc1[C@@H](C)C(=O)N2CC(=O)Nc1ccc2c(Cl)nccc2c1` (single isomer, unassigned) [#240], the IC50 was 15.8 to 39.8 nM in assay [1] and 39.8 to 100 nM in assay [2].

Consider `Cc1cc2c(c(Cl)n1)-c1cccnc1CC(=O)N2CC(=O)Nc1ccc(C(F)(F)F)cc1` [#97, 2-(3-chloro-5-methyl-9-oxo-4,8,12-triazatricyclo[9.4.0.0^2,7]pentadeca-1(11),2(7),3,5,12,14-hexaen-8-yl)-N-[4-(trifluoromethyl)phenyl]acetamide], for which the IC50 in assay [1] was 39.8 to 100 nM; in assay [2], under 15.8 nM.

Regarding `CC1C(=O)N(CC(=O)Nc2ccc(Cl)c(F)c2)c2ccnc(F)c2-c2cc(F)cnc21` (single isomer, unassigned) [#419, N-(4-chloro-3-fluoro-phenyl)-2-[3,14-difluoro-10-methyl-9-oxo-4,8,12-triazatricyclo[9.4.0.0^2,7]pentadeca-1(15),2,4,6,11,13-hexaen-8-yl]acetamide], the IC50 in assay [1] was 15.8 to 39.8 nM; in assay [2] it was under 15.8 nM.

Consider `CC1C(=O)N(CC(=O)Nc2ccc(C(F)(F)F)cc2)c2cn(C)c(=O)c(F)c2-c2cccnc21` (single isomer, unassigned) [#184, enantiomer (10R) or (10S) of 2-(3-fluoro-5,10-dimethyl-4,9-dioxo-5,8,12-triazatricyclo[9.4.0.0^2,7]pentadeca-1(11),2,6,12,14-pentaen-8-yl)-N-[4-(trifluoromethyl)phenyl]acetamide], for which the values for the IC50 in assay [1] and in assay [2] were 15.8 to 39.8 nM and under 15.8 nM, respectively.

For the molecule `Cc1cc2c(c(F)n1)-c1ccnn1[C@@H](C)C(=O)N2CC(=O)Nc1ccc(C(F)(F)F)cc1` (single isomer, unassigned) [#198, Enantiomer (7R) or (7S) of 2-[14-fluoro-7,12-dimethyl-8-oxo-5,6,9,13-tetrazatricyclo[8.4.0.0^2,6]tetradeca-1(10),2,4,11,13-pentaen-9-yl]-N-[4-(trifluoromethyl)phenyl]acetamide], the IC50 in assay [1] and in assay [2] was 39.8 to 100 nM in each case.

For the molecule `Cc1cc2c(c(O)n1)-c1cccnc1C(C)C(=O)N2CC(=O)Nc1ccc(C(F)(F)F)cc1` (single isomer, unassigned) [#161, 2-(3-hydroxy-5,10-dimethyl-9-oxo-4,8,12-triazatricyclo[9.4.0.0^2,7]pentadeca-1(11),2(7),3,5,12,14-hexaen-8-yl)-N-[4-(trifluoromethyl)phenyl]acetamide], the IC50 in assay [1] and in assay [2] was 15.8 to 39.8 nM each time.

Consider `O=C(CN1C(=O)Cc2ccccc2-c2ncc(F)cc21)Nc1ccc(C(F)(F)F)cc1` [#16, 2-(3-fluoro-6-oxo-7H-pyrido[3,2-d] [3]benzazepin-5-yl)-N-[4-(trifluoro-methyl)phenyl] acetamide], for which the IC50 in assay [1] and in assay [2] was 100 to 501 nM throughout.

In the case of `CC1C(=O)N(CC(=O)Nc2ccc(C(F)F)cc2)c2cc(N3CCC(F)(F)C3)nc(F)c2-c2cccnc21` (single isomer, unassigned) [#278, N-[4-(difluoromethyl)phenyl]-2-[5-(3,3-difluoropyrrolidin-1-yl)-3-fluoro-10-methyl-9-oxo-4,8,12-triazatricyclo[9.4.0.0^2,7]pentadeca-1(15),2,4,6,11,13-hexaen-8-yl]acetamide], the IC50 in assay [1] is 39.8 to 100 nM; in assay [2], 15.8 to 39.8 nM.

Consider `CC1C(=O)N(CC(=O)Nc2ccc(Cl)c(F)c2)c2cc(CN3CC(C)(O)C3)ccc2-c2cccnc21` (stereo not drawn) [#343, N-(4-chloro-3-fluoro-phenyl)-2-[9-[(3-hydroxy-3-methyl-azetidin-1-yl)methyl]-5-methyl-6-oxo-5H-pyrido[2,3d][1]benzazepin-7-yl]acetamide], for which the IC50 is 39.8 to 100 nM in assay [1] and 100 to 501 nM in assay [2].

Turning to `Cc1cc2c(c(Cl)n1)-c1cc(F)cnc1C(C)C(=O)N2CC(=O)Nc1ccc(C(F)(F)F)cn1` (single isomer, unassigned) [#424, 2-(3-chloro-14-fluoro-5,10-dimethyl-9-oxo-4,8,12-triazatricyclo[9.4.0.0^2,7]pentadeca-1(11),2,4,6,12,14-hexaen-8-yl)-N-[5-(trifluoromethyl)-2-pyridyl]acetamide], the IC50 in assay [1] and in assay [2] was 15.8 to 39.8 nM throughout.

As for `Cc1cc2c(c(Cl)n1)-c1cccnc1C(C)C(=O)N2CC(=O)Nc1ccc(Cl)c(F)c1` (single isomer, unassigned) [#117, 2-[3-chloro-5,10-dimethyl-9-oxo-4,8,12-triazatricyclo[9.4.0.0^2,7]pentadeca-1(15),2(7),3,5,11,13-hexaen-8-yl]-N-(4-chloro-3-fluorophenyl)acetamide], the IC50 in assay [1] and in assay [2] was under 15.8 nM throughout.

On to `Cc1cc2c(c(F)n1)-c1cccnc1C(C)C(=O)N2CC(=O)Nc1ccc(C)c(F)c1` (stereo not drawn) [#128, 2-(3-fluoro-5,10-dimethyl-9-oxo-4,8,12-triazatricyclo[9.4.0.0^2,7]pentadeca-1(11),2(7),3,5,12,14-hexaen-8-yl)-N-(3-fluoro-4-methyl-phenyl)acetamide], for which the figures for the IC50 in assay [1] and in assay [2] were 15.8 to 39.8 nM and under 15.8 nM, respectively.

Consider `Cc1cc2c(c(F)n1)-c1c[nH]nc1CC(=O)N2CC(=O)Nc1ccc(C(F)(F)F)cc1` [#123, 2-(14-fluoro-12-methyl-8-oxo-4,5,9,13-tetrazatricyclo[8.4.0.0^2,6]tetradeca-1(10),2,5,11,13-pentaen-9-yl)-N-[4-(trifluoromethyl)phenyl]acetamide], for which the IC50 is 100 to 501 nM in assay [1] and 39.8 to 100 nM in assay [2].

The values above are taken from patent US20260217708A1, “FUSED BENZAZEPINE DERIVATIVES FOR USE IN THE TREATMENT OF CANCER AND EPILEPSY” (UCB BIOPHARMA SRL, priority 2023, published 2026).
